# Test results published in EP0232893A2, “Antibiotics of the streptogramine type, a microbiological process for their preparation and their use as medicaments and food additives” (HOECHST AKTIENGESELLSCHAFT, priority 1986, dated 1987).
# *1 amine or outer side, *2 acyl side, *3 side chain or, on linkers, in order; H or OH if unused. Where a SMILES comes first, the peptide text is derived from it. Bridges are numbered along the chain shown (N, C = ends). [ ]: non-standard residue; d: D form. The star is where a group is joined. X1 = CC(C)[C@H](C)[C@@H](C(=O)[*:2])N(C)[*:1]; d(cisHyp) = O=C(O)[C@H]1C[C@@H](O)CN1; Picolinoyl(3-OH) = O=C(c1ncccc1O)*; NMePhg = CN[C@H](C(=O)O)c1ccccc1; Sar = CNCC(=O)O
# Experiment: Feeding trials in animals, growth promotion
# Type: in vivo, Mastgeflügel, Schweinen, Mastrindern, Schafen und Kaninchen
# Conditions: e.g. fattening poultry, pigs, fattening cattle, sheep, rabbits
# From the text: Dies gilt auch für die einzelnen Komponenten, insbesondere für das Neoviridogrisein IV, für das ein wachstumsfördernder -Effekt bisher nicht beschrieben war. Auch die Legeleistung von Geflügel, insbesondere das Eigewicht und die Milchleistung von Milchkühen, -schafen und -ziegen wird durch den Antibiotikakomplex oder seine einzelnen Komponenten positiv beeinflußt.
# Zur Erzielung des Effekts verwendet man Konzentrationen von 2 - 100 ppm, vorzugsweise 2 - 50 ppm, insbesondere 5 - 20 ppm, bezogen auf Alleinfutter. Entsprechend höher sind die Konzentrationen, wenn die Antibiotika als Zusatz zu Beifutter verabreicht werden.
structure (smiles),measurement,value
CC(C)C[C@H]1NC(=O)[C@@H](NC(=O)c2ncccc2O)[C@@H](C)OC(=O)[C@H](c2ccccc2)N(C)C(=O)[C@H](C)NC(=O)[C@H]([C@@H](C)C(C)C)N(C)C(=O)CN(C)C(=O)[C@H]2C[C@@H](O)CN2C1=O [Neoviridogrisein IV] ({Picolinoyl(3-OH)}-T[dL][d(cisHyp)][Sar][X1]A[NMePhg]; ester 1-C),wachstumsfördernde Wirkung,ausgeprägte wachstumsfördernde Wirkung
